The values that follow come from US20150231045A1, “ANTI-DANDRUFF COMPOSITION COMPRISING 1-ACETOXYCHAVICOL ACETATE” (AnalytiCon Discovery GmbH, priority 2012, published 2015).

Broadly, the inhibition is how much of the control response was suppressed.

Experiment [1] deals with Malassezia sympodialis ATCC 42132. As to the kind of experiment: Classic assay for susceptibility testing of planktonically growing cells (OD580). In kind it is cell-based, Malassezia sympodialis (former M. furfur). The following applies: for inhibition at 12.5 µg/mL: read-out: Classic Assay, planktonic growth, inhibition. As for the experimental part: Routine cultivation of M. sympodialis: M. sympodialis (former M. furfur) CBS 1878 was obtained from the Centraalbureau voor Schimmelcultures Fungal Biodiversity Centre. It was routinely grown on Dixon-agar plates in a humid atmosphere (“wet box”) at 33° C., or in Sabouraud-Maltose (SM) broth complemented with Tween80 and Glycerin-monostearate for liquid cultures in shake-flasks (300 ml operated with 50 ml medium) with agitation (150 rpm).
(§1) General Assay Conditions • 1. Strain: Malassezia sympodialis ATCC 42132 • 2. Growth conditions: • Sabouraud-medium supplemented with dextrose (20 g/l), Tween 80 (1%) and glycerol-monostearat (emulsifier; 0.05%). Static incubation in flat-bottom 96-well microtiterplates (total volume 340 μl, working volume 200 μl; surface area 148 mm2). Incubation at 33° C. in humid atmosphere (wet-box) to avoid dessication. Incubation periods vary according to the assay format. Suspensions used for inoculation were adjusted to an optical density (OD580) of 0.1 • 3. […] Controls • Sterile media was used as negative control; cells cultivated in absence of any test compound but in presence of equal amounts of DMSO compared to samples (see below) were regarded as positive control (unrestricted growth) • 5. All compounds (test-samples and references) are dissolved in DMSO. […] Unless otherwise stated, test compound concentration was 12.5 μg/ml
Routine susceptibility testing of M. sympodialis in high throughput format was done by simultaneous addition of test compounds and inoculum. Seven days after inoculation and when planktonic growth of the untreated control ceased, the effect of the test compounds was evaluated by comparison of the turbidity (optical density, OD580) of treated and untreated samples (control; 100%).
The classic assay is the platform to determine dose-response relationships, where serial dilutions of compounds are evaluated. For description of these relationships, values for the minimal effective concentration and the concentration effective in reducing cell proliferation by 50% (IC50) are generated.

The test system is the same in experiment [2]. As to the kind of experiment: Mid-log assay (compound added at half-maximum OD580). It counts as cell-based, Malassezia sympodialis (former M. furfur). The following applies: Example 7; for inhibition at 12.5 µg/mL: Malassezia sympodialis, ATCC42132, read-out: Mid-log Assay %-inhibition compared to benchmark. The procedure: Cells are cultivated to half-maximal OD580 before test compounds are added (arrow). Value of OD580 at time of sample application is set 100%. […] Blue diamonds, untreated control cells; pink rectangles, cells treated with test compounds.
as §1
For the so called “mid-log assay”, cells are grown to half-maximum optical density before test compounds are added. […] Numbers for OD580 of untreated control samples and samples treated with test compounds are compared to t0-value, which is defined as the 100% level. The value for OD580 of the untreated control sample in stationary phase (end of experiment) is defined as the “control-level” (for unrestricted growth). Values for control-levels are solely dependent on t0-values and therefore vary with each experiment; thus, they cannot be standardised.
Exponentially growing cells (mid-log) are in a defined active state with respect to proliferation and metabolic activity. […] Moreover, the mode of inhibition caused by the test compound can be determined (see above).

Where [3] appears, read: Malassezia sympodialis, ATCC42132, Example 7, 12.5 μg/ml unless otherwise stated.
The mark [4] stands for this setting: 12.5 μg/ml unless otherwise stated.

≈ marks a conversion by molar mass, not a printed value.

As for `C=CC(OC(C)=O)c1ccc(OC(C)=O)cc1` (stereo not drawn) [1-acetoxychavicol, 1-acetoxychavicol acetate], the inhibition at 12.5 µg/mL in experiment [1] (setting [3]) was 61%; in experiment [2] (setting [4]), 11%. Also, the “Mid-log Assay Level-%” value in experiment [2] (OD580 at addition = 100%, Control-level 399) was 379%.

As to `CC(C)(C)C(=O)C(Oc1ccc(Cl)cc1)n1ccnc1` (stereo not drawn) [Crinipan, climbazole], the inhibition at 12.5 µg/mL in experiment [1] (setting [3]) came to 93%; in experiment [2] (setting [4]), 66%. Also, in experiment [1] (Malassezia sympodialis, ATCC42132, serial dilutions, classic assay, read-out: IC50 (concentration reducing cell proliferation by 50%), planktonic growth), the IC50 came out at 0.2 µg/mL (≈ 0.683 µM).

Take Zinc Pyrithione: the “Classic Assay, planktonic growth, inhibition” value in experiment [1] (Example 7, 12.5 μg/ml unless otherwise stated) turned out to be 73% inhibition. Besides, in experiment [1] (serial dilutions, classic assay), the “IC50 (concentration reducing cell proliferation by 50%), planktonic growth” value stood at 12.4 µg/mL. Also, the “Mid-log Assay %-inhibition compared to benchmark” value in experiment [2] (setting [4]) was found to be 16%.
